According to publication PMC6396024, “Artemin and an Artemin-Derived Peptide, Artefin, Induce Neuronal Survival, and Differentiation Through Ret and NCAM” (Frontiers in Molecular Neuroscience, 2019):
Bridge positions count the residues as written; N and C are the ends. Ends that are not written are not given here. I, II: the chains in the order shown.

B1: recombinant human Artemin (ARTN) (ligand, UniProt Q5T4W7 108-220, looked up)
chain: AGGPGSRARAAGARGCRLRSQLVPVRALGLGHRSDELVRFRFCSGSCRRARSPHDLSLASLLGAGALRPPPGSRPVSQPCCRPTRYEAVSFMDVNSTWRTVDRLSATACGCLG
notes: Artemin (ARTN), human, UniProt D3DPX9; source: bought: R&D Systems

Columns and labels:
[1] = tested on: RET; cerebellar granule neurons (CGNs); experiment: Neurite outgrowth in CGNs transfected with dominant negative RET (dnRET); format: cell-based, Wistar rat; conditions: 24 h, P2-d 8 μg/ml, ARTN 0.21 nM, artefin 1.4 μM; for neurite outgrowth in mock-transfected neurons: empty vector, versus control
Method: (§1) Cerebellar granule neurons (CGNs) were prepared from 7-day-old Wistar rat pups (Charles River Laboratories, Sulzfeld, Germany) as previously described ([Schousboe et al., 1989]). Briefly, pups were decapitated, and the cerebellum was removed and cleared from blood vessels and meninges in ice-cold modified Krebs-Ringer buffer. The cerebellum was dissociated by chopping and trypsinization. Cells were washed in Krebs-Ringer buffer containing DNAse I (Sigma, St. Louis, MO, United States) and soybean trypsin inhibitor (Sigma) to stop trypsinization, and the remaining tissue pieces were pelleted by centrifugation. Cells were then washed in Krebs-Ringer buffer containing Ca^2+ and Mg^2+ and re-suspended in appropriate Neurobasal^TM medium (Invitrogen, Taastrup, Denmark) with supplements depending on the experiment.
To evaluate the involvement of NCAM and RET in neurite outgrowth induced by either ARTN or artefin, CGNs (3 × 10^6 per transfection) were transfected with 3 μg DNA using a Nucleofector^TM 2b device and a Rat Neuron Nucleofector Kit (Amaxa, Inc., Gaithersburg, MD, United States). A kinase-deleted dominant negative RET insert was obtained by direct PCR using a commercially available clone (IRAKp961P02132Q; RZPD, Berlin, Germany) encoding full-length mouse RET coding sequence 586–3807 nt. as template. The upper primer […] contained a NheI restriction site and Kozak sequence, and the lower primer […] encoded Streptag II and NotI restriction sites. The dominant negative RET insert and the pcDNA5/FRT expression vector containing the Flp-In system were cut with NheI and NotI restriction enzymes, purified, ligated using the Rapid DNA Ligation Kit (Roche, Basel, Switzerland), and transfected into One Shot TOP10 E. coli (Invitrogen, Taastrup, Denmark). E. coli colonies containing the dominant negative RET insert were identified by PCR, and one insert-positive colony was used for plasmid purification. The identity of the purified plasmid was verified by restriction cutting and sequencing of the insert. For NCAM knock down, we used a pENTR vector containing the shRNA expression cassette for NCAM knock down ([Hansen et al., 2007]). An empty vector was used as a control. To identify transfected neurons, all transfections were performed as co-transfections with 0.5 μg pEGFP-N1, an expression vector encoding the enhanced variant of green fluorescent protein (GFP; Clontech, Palo Alto, CA, United States). Transfected CGNs were seeded in Neurobasal^TM-A medium supplemented with 2% (v/v) B27, 5% (v/v) FCS, and 2 mM Glutamax at a density of 1 × 10^5 cells/cm^2.
To estimate neurite outgrowth, neurons were fixated 24 h after stimulation and stained with rabbit anti-growth-associated-protein-43 (GAP-43) antibody (Chemicon International, Inc., Temecula, CA, United States) or anti-GFP antibody (for transfection experiment) overnight at 4°C followed by incubation with secondary Alexa-conjugated goat anti-rabbit antibodies (Invitrogen, Taastrup, Denmark). In case of experiments with plasmid transfection, the transfection efficiency was ca. 20% of total cells and the neurite outgrowth was evaluated only in GFP-positive, i.e., transfected, cells. For representative pictures, cells were additionally co-stained with Hoechst 33258.
Computer-assisted fluorescent microscopy was performed using a Nikon Diaphot 300 inverted microscope (Nikon) equipped with a Nikon Plan 20× objective and coupled to a video camera (Grundig Electronics, Germany). For each condition in each experiment, including the experiment with transfections, images of approximately 200 cells were recorded in systematic series of fields of view, and neurite outgrowth was quantified using a stereological approach as previously described ([Rønn et al., 2000]).
FIGURE 7 Neuritogenic effect of ARTN and artefin in (A) dominant negative RET or (B) knock down NCAM-expressing CGNs. […]

[2] = tested on: FGFR; cerebellar granule neurons (CGNs); experiment: Neurite outgrowth in CGNs transfected with dominant negative FGFR (dnFGFR); format: cell-based, Wistar rat; conditions: 24 h, ARTN 0.21 nM or artefin 1.4 μM
Method: as §1, with “Cells were then washed in Krebs-Ringer buffer containing Ca^2+ and Mg^2+ and re-suspended in appropriate Neurobasal^TM medium (Invitrogen, Taastrup, Denmark) with supplements depending on the experiment.” left out
To estimate neurite outgrowth, neurons were fixated 24 h after stimulation and stained with rabbit anti-growth-associated-protein-43 (GAP-43) antibody (Chemicon International, Inc., Temecula, CA, United States) or anti-GFP antibody (for transfection experiment) overnight at 4°C followed by incubation with secondary Alexa-conjugated goat anti-rabbit antibodies (Invitrogen, Taastrup, Denmark). In case of experiments with plasmid transfection, the transfection efficiency was ca. 20% of total cells and the neurite outgrowth was evaluated only in GFP-positive, i.e., transfected, cells. […]

Molecule | neurite outgrowth in dnRET-transfected neurons [1] | neurite outgrowth in mock-transfected neurons [1] | neurite outgrowth effect in CGNs expressing dnFGFR [2]
I: RSPHDLSLASLLGAGKK-NH2 / II: RSPHDLSLASLLGAGK / III: RSPHDLSLASLLGAG / IV: RSPHDLSLASLLGAG (amide I:16-IV:C, I:17-II:C, II:16-III:C; C-terminus assumed) [artefin] | abrogated in dnRET-transfected neurons (p < 0.01 versus artefin alone | significantly increased neurite outgrowth in mock-transfected neurons (p < 0.01 versus control) | abolished in CGNs expressing dnFGFR
B1 | abolished in neurons expressing dnRET (p < 0.05 versus ARTN alone | significantly increased by ARTN in mock-transfected neurons (p < 0.05 versus control) | abolished in CGNs expressing dnFGFR
